# Entries after “also recorded” stand apart in the source; their conditions may differ.
# Experiments:
# [1] = test system: HepG2 (human hepatoblastoma cells); assay: RESV metabolism in cell culture (LC-MS), HepG2; conditions: HepG2, 20 or 200 µM RESV, 4 h
# Description: (§1) Cells were maintained in Dulbecco’s Modified Eagle Medium (DMEM) with 1% penicillin/streptomycin and 2 mM L-glutamine with some modifications as follows; DMEM (1.0 g/L glucose) with 10% fetal calf serum (FCS) for HepG2; DMEM (4.5 g/L glucose) with 10% FCS for HaCaT; DMEM (4.5 g/L glucose) with 20% FCS for C2C12. C2C12 cells were differentiated into myotubes by switching medium into DMEM containing 2% horse serum. Cells were plated on a 10 cm dish and allowed to adhere for 18 h. […] After 4 h incubation, cells were washed with PBS twice, followed by addition of 2 mL 50% ice-cold methanol. Collected cells were transferred into tubes on ice and further processed as described in metabolome sample preparation section.
# (§2) After addition of internal standards (10 nmol HEPES and PIPES) to metabolome samples and brief vortexing, samples were transferred to Amicon Ultra 10 kDa cut-off filters (Millipore, Billerica, MA, USA) to remove proteins. […]
# (§3) LC-MS data were obtained using a Paradigm MS4 HPLC system (Michrom Bioresources, Auburn, CA, USA) coupled to an LTQ Orbitrap mass spectrometer (Thermo Fisher Scientific, Waltham, MA, USA), as described previously [38]. […] Peak areas of metabolites of interest were measured using the MZmine 2.10 software [39] and normalized using the peak areas of HEPES and PIPES, as described in S2 Table.
# [2] = test system: HaCaT (human keratinocytes); assay: RESV metabolism in cell culture (LC-MS), HaCaT; conditions: 20 or 200 µM RESV, 4 h
# Description: as §1, §2, §3
# C2C12 (mouse myoblasts) = assay: RESV metabolism in cell culture (LC-MS), C2C12; conditions: C2C12, 20 or 200 µM RESV, 4 h
# Description: as §1, §2, §3
# [3] = Distribution of RESV metabolites in mouse tissues after oral and dermal administration (LC-MS); type: in vivo, mouse; conditions: for Tissue distribution of metabolite: hairless mice, 4 h after 1 mg RESV, both oral and skin administration
# Description: Mice were separated from each other and could not lick RESV from their dorsal skin.
# Mice were anesthetized with pentobarbital and blood was collected from the right ventricle. For metabolite extraction 0.2 mL of blood were mixed with 1.8 mL 55% methanol, pre-chilled to −40°C and kept until further processing as described in the metabolome sample preparation section. In addition to blood, metabolome samples were prepared from liver, dorsal skin, leg skin, and hind limb muscle.
# Around 100 mg of each mouse tissue was dissected and weighed. Tissues were minced and homogenized for 3 min in 500 µL 50% methanol on ice using a BioMasher II (Nippi, Tokyo, Japan). Next, 1 mL 50% methanol and internal standards (10 nmol 4-(2-hydroxyethyl)-1-piperazineethanesulfonic acid (HEPES) and piperazine-N,N’-bis(2-ethanesulfonic acid) (PIPES)) were added to the samples. HEPES and PIPES were used as internal standards to correct for the variation of sample preparation and different detection efficiency. After brief vortexing, samples were centrifuged at 500 g for 10 min at 4°C. Supernatant was recovered for further processing as described in the metabolome sample preparation section (without the repeated addition of internal standards and vortexing).
# Metabolome sample preparation was previously described.
# Peaks were assigned to metabolites based upon their retention times and m/z values. Compounds were confirmed with standards (STD) or with analysis of MS/MS spectra (MS/MS), if no standard was available. In cases where no standard compound or MS/MS spectrum was available, compounds were identified by generating chemical formulae using m/z values in MZmine 2.10 module and given MS status. Data were analyzed using the scatter plot function built into MZmine 2.10 software, as well as by exporting the data to a spreadsheet.
# TPA-induced ear edema = assay: TPA-induced ear edema; type: in vivo, mouse; conditions: for Ear thickness: 24 h after 1 µg TPA, before TPA 0.22 mm, TPA control 0.30 mm, female C57BL/6 mice
# Description: The ear edema model was employed as previously described. Briefly, 1 µg 12-O-Tetradecanoylphorbol-13-acetate (TPA) was applied to the right ear of female C57BL/6 mice. Edema was evaluated by measuring ear thickness and ear weight. […] Ear thickness was measured with a micrometer before and 24 h after TPA treatment. After sacrificing mice with CO2, ear punch biopsies (6 mm diameter) were weighed.
# [4] = RESV-treated mouse samples, LC-MS negative ionization mode
compound,measurement,setting,value
"O=C(O)[C@H]1O[C@@H](Oc2cc(O)cc(/C=C\c3ccc(O)cc3)c2)[C@H](O)[C@@H](O)[C@@H]1O (relative stereo) [cis-RESV-3-O-GLUC, cis-Resveratrol-3-O-glucuronide]",Detection of metabolite (normalized peak area) in cells treated with RESV,[1],detected
same,Detection of metabolite (normalized peak area) in cells treated with RESV,[2],detected
same,Detection of metabolite (normalized peak area) in cells treated with RESV,C2C12 (mouse myoblasts),detected
"O=C(O)[C@H]1O[C@@H](Oc2ccc(/C=C\c3cc(O)cc(O)c3)cc2)[C@H](O)[C@@H](O)[C@@H]1O (relative stereo) [cis-RESV-4-O-glucuronide, cis-resveratrol-4-O-glucuronide]",Detection of metabolite in mouse and cell culture samples,"[3]; mouse, in vivo",barely detected
"O=C(O)[C@H]1O[C@@H](Oc2cc(O)cc(/C=C/c3ccc(O)cc3)c2)[C@H](O)[C@@H](O)[C@@H]1O (relative stereo) [trans-RESV-3-O-GLUC, trans-resveratrol-3-O-glucuronide]",Detection of metabolite (normalized peak area) in cells treated with RESV,[1],detected
same,Detection of metabolite (normalized peak area) in cells treated with RESV,[2],detected
same,Detection of metabolite (normalized peak area) in cells treated with RESV,C2C12 (mouse myoblasts),detected
"O=C(O)[C@H]1O[C@@H](Oc2ccc(/C=C/c3cc(O)cc(O)c3)cc2)[C@H](O)[C@@H](O)[C@@H]1O (relative stereo) [trans-RESV-4-O-glucuronide, trans-resveratrol-4-O-glucuronide]",Detection of metabolite in mouse and cell culture samples,"[3]; mouse, in vivo",barely detected
"Oc1ccc(/C=C/c2cc(O)cc(O)c2)cc1 [RESV, trans-resveratrol]",Ear weight,"TPA-induced ear edema; 6 mm ear punch 24 h after TPA, 1 mg RESV oral, TPA-treated mice 9.4 mg",8.1 mg
same,Ear thickness,TPA-induced ear edema; 1 mg RESV applied topically to ear 30 min after TPA,0.21 mm
same,Ear thickness,TPA-induced ear edema; 1 mg RESV orally 30 min after TPA,0.26 mm
Dihydroresveratrol- glucuronide [DH-RESV-GLUC],Tissue distribution of metabolite,[3],detected in blood and liver as well as at lower levels in skin and muscle
Dihydroresveratrol- sulfoglucuronide [DH-RESV-SULF-GLUC],Reports and comments: samples in which the metabolite was detected,[3]; [4],Detected in mouse liver samples
Dihydroresveratrol-sulfate [DH-RESV-SULF],Tissue distribution of metabolite,[3],"detected mainly in liver and blood; also recorded: barely detectable in dorsal and leg skin, and muscle"
Resveratrol-diglucuronide [RESV-DIGLUC],Reports and comments: samples in which the metabolite was detected,"[3]; mouse, in vivo",Detected in mouse skin samples
Resveratrol-disulfate [RESV-DISULF],Reports and comments: samples in which the metabolite was detected,[3]; [4],Detected in mouse blood and liver samples
Resveratrol-sulfoglucuronide [RESV-SULF-GLUC],Reports and comments: samples in which the metabolite was detected,"[3]; mouse, in vivo",Azorin-Ortuno et al 2011 [4] (MS/MS data) Detected in blood mouse blood samples

# — PMC4266648, “Metabolism of Skin-Absorbed Resveratrol into Its Glucuronized Form in Mouse Skin” (PLoS ONE, 2014)
